Consider 24 compounds from US20240425496A1, “AZETIDINYL PYRIMIDINES AND USES THEREOF” (Aerie Pharmaceuticals, Inc., priority 2021, published 2024).

Each structure is given as a SMILES string.

The target in one experiment is JAK1 (Homo sapiens (Human), UniProt P23458). Briefly: JAK kinase assay (KINASE-GLO luminescent), JAK1 enzyme. The conditions noted are these: JAK1 enzyme 10 nM, Abl peptide substrate. The class given is biochemical. Here is the method:
(§1) All compounds were initially prepared as 10 mM stocks in anhydrous dimethylsulfoxide (DMSO). […] Test compounds were then serially diluted 1:5 in DMSO for an 11-point concentration response and further diluted in the assay buffer bringing all compound concentrations to a final range of 100 μM to 10 μM in 2.5% DMSO. […] The reaction was initiated by the addition of 10 μL of 4× stock solution ATP (2 μM). Reactions were thoroughly mixed manually, covered, and allowed to incubate at room temperature for 75 min. Protein kinase activity was quantitated using Promega's KINASE-GLO™ luminescent Kinase Assay Kit according to the manufacturer's directions. ATP concentrations remaining in Test wells following the termination of the enzymatic reaction were compared against control wells containing equivalent amounts of DMSO containing no inhibitor (CTRL). […] Percent of Control (POC) values were determined for each concentration of compound tested according to the equation: […]
(§2) IC50 values were calculated using the following 4-parameter logistic curve-fitting algorithm:
(§3) Compounds were prepared in the exact same manner as described in the ROCK Kinase Assay with the exception to the substrate and enzyme. […] All other steps and solutions remain identical to the ROCK Kinase Assay above.
In general terms: In Kinase-Glo more light means more ATP remaining.

Another experiment has as its target TYK2 (Homo sapiens (Human), UniProt P29597). Briefly: JAK kinase assay (KINASE-GLO luminescent), TYK2 enzyme. Format: biochemical. The conditions noted are these: TYK2 enzyme 10 nM, Abl peptide substrate. The method, then: as §1, §2, §3

TYK2, sequence (P29597 whole entry, species assumed): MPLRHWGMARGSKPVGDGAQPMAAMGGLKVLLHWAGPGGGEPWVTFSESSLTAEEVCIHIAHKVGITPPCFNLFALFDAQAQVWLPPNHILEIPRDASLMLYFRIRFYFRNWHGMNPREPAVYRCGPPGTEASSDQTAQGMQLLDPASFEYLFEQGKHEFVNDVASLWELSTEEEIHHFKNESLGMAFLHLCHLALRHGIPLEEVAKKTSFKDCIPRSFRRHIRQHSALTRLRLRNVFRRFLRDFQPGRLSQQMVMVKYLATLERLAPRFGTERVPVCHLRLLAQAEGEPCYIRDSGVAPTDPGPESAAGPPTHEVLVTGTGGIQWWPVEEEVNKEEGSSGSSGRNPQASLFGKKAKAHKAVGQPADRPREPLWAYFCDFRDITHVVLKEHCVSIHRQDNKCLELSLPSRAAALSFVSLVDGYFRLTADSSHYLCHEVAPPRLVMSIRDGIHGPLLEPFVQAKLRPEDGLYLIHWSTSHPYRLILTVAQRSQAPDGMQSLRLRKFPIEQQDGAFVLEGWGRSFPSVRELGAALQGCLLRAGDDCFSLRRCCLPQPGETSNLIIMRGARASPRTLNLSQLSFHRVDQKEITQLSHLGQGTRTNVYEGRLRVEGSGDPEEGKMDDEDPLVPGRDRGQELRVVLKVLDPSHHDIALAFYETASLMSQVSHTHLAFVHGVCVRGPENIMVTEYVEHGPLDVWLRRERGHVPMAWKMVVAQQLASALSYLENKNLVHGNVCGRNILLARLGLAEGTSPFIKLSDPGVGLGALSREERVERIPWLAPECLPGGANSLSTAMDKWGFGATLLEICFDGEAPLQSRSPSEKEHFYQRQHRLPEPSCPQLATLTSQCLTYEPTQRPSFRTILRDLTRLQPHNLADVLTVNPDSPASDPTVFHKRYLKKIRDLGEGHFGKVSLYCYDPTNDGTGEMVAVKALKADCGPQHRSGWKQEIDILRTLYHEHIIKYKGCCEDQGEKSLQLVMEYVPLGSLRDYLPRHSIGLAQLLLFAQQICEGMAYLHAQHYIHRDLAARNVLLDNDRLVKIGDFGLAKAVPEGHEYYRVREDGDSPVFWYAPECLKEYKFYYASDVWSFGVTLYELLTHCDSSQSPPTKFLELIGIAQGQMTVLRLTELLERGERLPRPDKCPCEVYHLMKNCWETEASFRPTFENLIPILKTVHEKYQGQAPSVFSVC
JAK1, sequence (P23458 whole entry, species assumed): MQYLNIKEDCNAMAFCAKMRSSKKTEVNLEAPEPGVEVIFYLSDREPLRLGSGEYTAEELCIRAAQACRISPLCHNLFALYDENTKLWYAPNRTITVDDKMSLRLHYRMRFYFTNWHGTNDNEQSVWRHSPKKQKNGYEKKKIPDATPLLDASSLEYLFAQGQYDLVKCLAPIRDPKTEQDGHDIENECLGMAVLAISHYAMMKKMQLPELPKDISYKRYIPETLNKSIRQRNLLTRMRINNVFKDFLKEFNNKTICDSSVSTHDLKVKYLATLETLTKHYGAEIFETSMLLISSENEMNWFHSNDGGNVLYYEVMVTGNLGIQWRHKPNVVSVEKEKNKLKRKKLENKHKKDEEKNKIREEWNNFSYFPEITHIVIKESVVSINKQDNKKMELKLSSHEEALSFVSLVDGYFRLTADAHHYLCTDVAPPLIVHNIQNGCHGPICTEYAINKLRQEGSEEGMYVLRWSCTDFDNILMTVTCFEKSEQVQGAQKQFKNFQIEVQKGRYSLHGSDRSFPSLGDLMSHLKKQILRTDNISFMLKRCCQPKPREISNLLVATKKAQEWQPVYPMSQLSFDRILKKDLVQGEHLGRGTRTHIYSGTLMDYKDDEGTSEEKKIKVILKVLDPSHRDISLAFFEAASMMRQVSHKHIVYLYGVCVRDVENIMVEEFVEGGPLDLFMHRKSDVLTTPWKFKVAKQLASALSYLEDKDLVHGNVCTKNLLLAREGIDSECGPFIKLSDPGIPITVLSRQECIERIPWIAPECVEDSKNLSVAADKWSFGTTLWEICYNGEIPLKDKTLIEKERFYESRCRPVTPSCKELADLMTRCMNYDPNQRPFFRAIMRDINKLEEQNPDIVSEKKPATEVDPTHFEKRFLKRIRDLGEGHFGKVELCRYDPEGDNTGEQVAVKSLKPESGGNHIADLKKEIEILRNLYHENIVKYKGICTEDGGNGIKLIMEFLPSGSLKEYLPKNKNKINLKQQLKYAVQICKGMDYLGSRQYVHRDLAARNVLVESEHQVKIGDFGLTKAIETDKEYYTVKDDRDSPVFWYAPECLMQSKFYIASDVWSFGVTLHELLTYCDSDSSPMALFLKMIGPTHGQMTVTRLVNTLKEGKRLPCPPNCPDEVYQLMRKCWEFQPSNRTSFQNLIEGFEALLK

What is called IC50 is the concentration that gives 50% inhibition. In the case of `Cc1cc(Nc2ncc(C)c(N3CC(CC#N)(N4CCN5CC(F)(F)C[C@H]5C4)C3)n2)sn1` [E81a], the IC50 against JAK1 and against TYK2 was < 20 nM each time.
Consider `Cc1cnc(Nc2cnn(C)c2)nc1N1CC2(C1)CC2(F)F` [E82], for which the IC50 at JAK1 and on TYK2 was < 20 nM throughout.
With `Cc1cc(Nc2nccc(N3CC(CC#N)(N4CCN5CC6(CC6)C[C@H]5C4)C3)n2)sn1` [E82a], the IC50 was < 50 nM against JAK1 and < 20 nM against TYK2.
As for `Cc1cc(Nc2ncc(C)c(N3CC(CC#N)(N4CCN5CCC[C@]5(C)C4)C3)n2)sn1` [E83a], the IC50 against JAK1 is < 100 nM; on TYK2, < 50 nM.
In the case of `Cc1cc(Nc2ncc(C)c(N3CC(CC#N)(N4CCN5CCC[C@@]5(C)C4)C3)n2)sn1` [E84a], the IC50 at JAK1 and on TYK2 was < 10 nM throughout.
Regarding `Cc1cc(Nc2ncc(C)c(N3CC(CC#N)(N4CCN5CCCC[C@@H]5C4)C3)n2)sn1` [E85a], the IC50 on JAK1 was < 50 nM; against TYK2, < 10 nM.
For the compound `Cc1cc(Nc2ncc(C)c(N3CC(CC#N)(N4CCN5CC6CC5(C6)C4)C3)n2)sn1` [E86a], the IC50 was < 100 nM against JAK1 and < 20 nM at TYK2.
`Cc1cc(Nc2ncc(C)c(N3CC(CC#N)(N4CCCN5CCC[C@H]5C4)C3)n2)sn1` [E87a]: the IC50 on JAK1 and against TYK2 was < 10 nM each time.
For the compound `Cc1cc(Nc2ncc(C)c(N3CC(CC#N)(N4CC5(C4)CC5(F)F)C3)n2)sn1` [E88a], the IC50 at JAK1 and against TYK2 was < 10 nM in each case.
Take `Cc1cc(Nc2ncc(C)c(N3CC(CC#N)(N4CCN5CCC5C4)C3)n2)sn1` (stereo not drawn) [E89a]: the IC50 against JAK1 was < 100 nM; at TYK2 it was < 50 nM.
For `Cc1cc(Nc2ncc(C)c(N3CC(CC#N)(N4CCn5cccc5C4)C3)n2)sn1` [E90a], the IC50 against JAK1 and on TYK2 was < 10 nM each time.
With `Cc1cc(Nc2ncc(C)c(N3CC(CC#N)(N4CCn5c(cnc5C)C4)C3)n2)sn1` [E91a], the IC50 on JAK1 and against TYK2 was < 10 nM in each case.
In the case of `Cc1cc(Nc2ncc(C)c(N3CC(CC#N)(N4C[C@@H]5OCCO[C@@H]5C4)C3)n2)sn1` [E92a], the IC50 against JAK1 and on TYK2 was < 10 nM throughout.
In the case of `Cc1cc(Nc2ncc(C)c(N3CC(CC#N)(N4CCn5cncc5C4)C3)n2)sn1` [E93a], the IC50 on JAK1 and on TYK2 was < 10 nM throughout.
Consider `Cc1cc(Nc2ncc(C)c(N3CC(CC#N)(N4CCN(C)C5CC54)C3)n2)sn1` (stereo not drawn) [E94a], for which the 50% inhibitory concentration (IC50) on JAK1 and against TYK2 was < 10 nM throughout.
For the compound `Cc1cc(Nc2ncc(C)c(N3CC(CC#N)(N4CC5(CC5)C4)C3)n2)sn1` [E95a], the IC50 on JAK1 is < 50 nM; against TYK2, < 10 nM.
Regarding `CCS(=O)(=O)C1CN(C2(CC#N)CN(c3nc(Nc4cc(C)ns4)ncc3C)C2)C1` [E96a], the IC50 on JAK1 is < 100 nM; on TYK2, < 50 nM.
With `Cc1cc(Nc2nccc(N3CC(CC#N)(N4CCN5C[C@H](F)C[C@H]5C4)C3)n2)sn1` [E97a], the IC50 is < 50 nM at JAK1 and < 10 nM against TYK2.
With `Cc1cc(Nc2ncc(C)c(N3CC(CC#N)(N4CC5OCCN(C)C5C4)C3)n2)sn1` (stereo not drawn) [E98a], the IC50 against JAK1 was < 50 nM; at TYK2, < 10 nM.
On the same counts, the results for `Cc1cc(Nc2ncc(C)c(N3CC(CC#N)(OC4CC5(CC5)C4)C3)n2)sn1` [E99a] are < 10 nM and < 10 nM.
The corresponding values for `COC(=O)CC1(N2CCN3CCC[C@H]3C2)CN(c2nc(Nc3cc(C)ns3)ncc2C)C1` [E100a] are < 10 nM and < 10 nM.
As for `COc1cnc(Nc2cc(C)ns2)nc1N1CC(CC#N)(N2CCN3C[C@H](F)C[C@H]3C2)C1` [E101a], the IC50 at JAK1 and against TYK2 was < 10 nM in each case.
Consider `Cc1cc(Nc2ncc(C3CC3)c(N3CC(CC#N)(N4CCN5C[C@H](F)C[C@H]5C4)C3)n2)sn1` [E102a], for which the IC50 at JAK1 and at TYK2 was < 10 nM each time.
Take `Cc1cc(Nc2ncc(C)c(N3CC(CCO)(N4CCN5CCC[C@H]5C4)C3)n2)sn1` [E103a]: the IC50 against JAK1 and against TYK2 was < 10 nM in each case.
